Test: in vitro
Settings: human, hela cells, % viability

| Structure (SMILES) | viability at 28.5 h, 10 µM | viability at 28.5 h, 10 µM (bulk resorufin, single well) |
| --- | --- | --- |
| Cc1nn(C)c(O)c1Cc1c(F)cccc1Cl [CBK067759] | 92.5% | – |
| O=C(CSc1nccc2ccccc12)NC1CCCOC1 (stereo not shown) [CBK282677] | 85.2% | – |
| Cc1cnn(C)c1CN1CCC(C(N)=O)(N2CCCCC2)CC1 [CBK304400] | 89.4% | – |
| O=C(COC(=O)c1cc(S(=O)(=O)N2CCCCC2)ccc1Cl)c1ccccc1 [CBK261657] | 86% | – |
| CN1CCC(N2CCN(C(=O)c3cncc(-c4ccc(C(=O)N5CCOCC5)cc4)c3)CC2)CC1 [CBK158600] | 115% | – |
| CN1C[C@@H](NC(=O)Nc2ccccc2)C[C@H]1c1nc(-c2ccccc2)no1 [CBK288877] | 124% | – |
| NS(=O)(=O)c1ccc(NC(=S)N2CCN(CCc3ccccc3)CC2)cc1 [CBK268133] | 97.6% | – |
| Cc1ccccc1Cn1c(CN2CCCCC2C)nc2c1c(=O)n(C)c(=O)n2C (stereo not shown) [CBK269199] | 91.2% | – |
| Nc1ccc2nc(CCCCCC(=O)O)sc2c1 [CBK016399] | 114% | – |
| COc1cccc(Nc2cc(-c3ccco3)ncn2)c1 [CBK090740] | 101% | – |
| Cn1c(CCC(=O)NCC(C)(C)N2CCCCC2)nc2ccccc21 [CBK281877] | 92.9% | – |
| Cc1nc2ccccc2n1CCNC(=O)c1ccccc1SCc1ccc(C#N)cc1 [CBK297082] | 106% | – |
| Cc1ccccc1-c1cnc(N)c(-c2ccc(O)cc2)n1 [CBK115544] | 95% | – |
| CC(C)S(=O)(=O)CC(=O)Nc1ccc(C(=O)O)cc1 [CBK020001] | 96.6% | – |
| N#Cc1c(Nc2cccc(F)c2)sc2c(O)cc(O)nc12 [CBK270250] | 100% | – |
| O=C(NCc1c(Cl)cccc1Cl)N1CCCCC1CO (stereo not shown) [CBK156184] | 99.5% | – |
| COCc1cc(C)n(CC(=O)Nc2ccc(N3CCOCC3)cc2)c(=O)c1C#N [CBK270190] | 95.2% | – |
| CCc1cc(=O)[nH]c(-c2ccc(N3CC(C(N)=O)CCC3C)nc2)n1 (stereo not shown) [CBK306448] | 93.1% | – |
| c1ccc2c(c1)CCN2c1ncnc2[nH]cnc12 [CBK291104] | 100% | – |
| CCNc1nccnc1-c1ccc(O)cc1 [CBK088589] | 108% | – |
| COc1nccnc1OC1CCN(CC(N)=O)CC1 [CBK084248] | 86.7% | – |
| COc1ccc(C(=O)[C@@H]2CCCC[C@H]2N)cc1 [CBK023040C] | 91.6% | – |

| Structure (SMILES) | viability at 28.5 h, 10 µM | viability at 28.5 h, 10 µM (bulk resorufin, single well) |
| --- | --- | --- |
| CCc1nnc(NS(=O)(=O)c2ccc(Nc3ccc([N+](=O)[O-])c4nonc34)cc2)s1 [CBK261442] | 92.3% | – |
| CC1(C)C2CCC1(CS(=O)(=O)N1CCC(C(N)=O)CC1)C(=O)C2 (stereo not shown) [CBK269499] | 102% | – |
| CCCCc1ccc(-c2nccn2CC2CN(C(C)=O)CCO2)s1 (stereo not shown) [CBK307600] | 110% | – |
| CC1CCc2n[nH]c(C(=O)N(C)CCc3ccncc3)c2C1 (stereo not shown) [CBK283195] | 99.5% | – |
| COc1ccc2[nH]cc([C@@H]3CCC[C@H](NC(=O)C4CCCO4)C3)c2c1 (stereo partly shown) [CBK284699] | 105% | – |
| COC(=O)CCC(=O)N1CCCC2(CCN(C(=O)c3ccoc3)C2)C1 (stereo not shown) [CBK160988] | 100% | – |
| COc1ccc(S(=O)(=O)N(C)CC(=O)Nc2ccc(S(N)(=O)=O)cc2)cc1 [CBK265922] | 102% | – |
| CNC(=O)N1CC(=O)N(Cc2cccc(Cl)c2)C1=O [CBK001918] | 104% | – |
| O=C(O)c1ccccc1-c1ccc(-c2cc(C(=O)O)c3cc(Cl)ccc3n2)o1 [CBK268699] | 91.1% | – |
| CC[C@H]1CN(C(=O)Nc2cccc(OC)c2)CC[C@H]1CC(=O)O [CBK288778] | 110% | – |
| O=C(CC1CCN(C(=O)CC2CCCCC2)CC1)Nc1ccccc1CN1CCCC1 [CBK286046] | 100% | – |
| O=C(O)c1cc(Br)cc2c3c([nH]c12)CCCC3 [CBK100973] | 99.7% | – |
| O=C(CSc1nnc(-c2ccc3c(c2)OCO3)n1-c1ccccc1)c1ccc(Cl)cc1 [CBK263559] | 100% | – |
| COCC(=O)N1CCc2nc(-c3ccc(F)cc3)sc2C1 [CBK281673] | 107% | – |
| COc1cccc(-c2ccc3ccc(N)nc3n2)c1 [CBK061640] | 99% | – |
| O=C(COc1ccccc1[N+](=O)[O-])Nc1cnc(-c2cccc(C(F)(F)F)c2)c(-c2ccco2)n1 [CBK036899] | 86.3% | – |
| CCC(=O)Nc1sc2c(c1-c1nc3ccccc3s1)CCCC2 [CBK287324] | 91.7% | – |
| NS(=O)(=O)c1ccc(CNC(=O)c2cncc(-c3ccc(C(=O)N4CCOCC4)cc3)c2)cc1 [CBK158641] | 100% | – |
| Cc1nc(C(=O)NC2CC(=O)N(CCc3ccc(F)cc3)C2)cs1 (stereo not shown) [CBK307473] | 100% | – |
| CCOC(=O)c1[nH]c2ccccc2c1NC(=O)CS(=O)(=O)c1ccc(C)cc1 [CBK160162] | 94.3% | – |
| O=C(c1ccco1)N1CCN(c2cncc(-c3cccc4cccnc34)n2)CC1 [CBK037339] | 96.9% | – |
| CC(C)CCNC(=O)N(CCc1ccccc1)Cc1ccccc1 [CBK155351] | 90.8% | – |

| Structure (SMILES) | viability at 28.5 h, 10 µM | viability at 28.5 h, 10 µM (bulk resorufin, single well) |
| --- | --- | --- |
| CC(C)NC(=O)C1CN(Cc2ccccc2)CC12CCc1ccccc1C2NC(=O)CN (stereo not shown) [CBK283093] | 79.4% | – |
| CCn1cc(CN2CCCN(C(=O)c3cccn(C)c3=O)CC2)cn1 [CBK305375] | 106% | – |
| Cc1ccc(S(=O)(=O)Nc2ccc(Nc3cc(-c4cc5ccccc5o4)ncn3)cc2)cc1 [CBK090976] | 96.8% | – |
| CN(CC(=O)NNC(=O)c1cccs1)S(=O)(=O)c1ccc2ccccc2c1 [CBK267409] | 90.8% | – |
| Cn1c2ccccc2c2nnc(NCCCCO)nc21 [CBK023366] | 98.8% | – |
| COc1cc(CNc2nccnc2-c2ccco2)cc(OC)c1OC [CBK037320] | 89.9% | – |
| CC(C)(C)OC(=O)N1CCC2(CC1)OCc1cc(Br)ccc1O2 [CBK092251] | – | 99.4% |
| CCCN1CCc2c(sc3nc(SCC(=O)OC)nc(N)c23)C1 [CBK126911] | 96.6% | – |
| O=[N+]([O-])c1ccc(Cl)cc1CN1CCN(c2ccccc2)CC1 [CBK261556] | – | 89.3% |
| [N-]=[N+]=Nc1nc2c(N)ncnc2n1C1CC(O)C(CO)O1 (stereo not shown) [CBK201178] | 95.2% | – |
| O=C(OCc1ccc([N+](=O)[O-])cc1)C1CCN(S(=O)(=O)c2cccc3cccnc23)CC1 [CBK264430] | 115% | – |
| CCOC(=O)c1sc(-c2c(Cl)cc(C(F)(F)F)cc2Cl)nc1O [CBK078547] | 114% | – |
| Cc1ccc(S(=O)(=O)NC2c3cccc4cccc(c34)C2Sc2nncn2N)cc1 (stereo not shown) [CBK265873] | 112% | – |
| c1ccc(CCNC2CCCc3c2[nH]c2ccc(C4CCCCC4)cc32)cc1 (stereo not shown) [CBK261602C] | 90.7% | – |
| Clc1cnc2nc(NCC3CCCCC3)sc2c1 [CBK067087] | 87.5% | – |
| CCC(Oc1nc2ccccc2nc1-c1ccccc1NC(C)=O)C(=O)c1ccccc1 (stereo not shown) [CBK267315] | 94.4% | – |
| Oc1ccc2ccccc2c1/C=N/Nc1nc(NCc2ccccc2)nc(N2CCOCC2)n1 [CBK261233] | 93.8% | – |
| COc1ccccc1N1C(=O)c2ccc(C(=O)Nc3cc([N+](=O)[O-])ccc3O)cc2C1=O [CBK264272] | 95.3% | – |
| NC(=O)c1c(NC(=O)Cn2ccc([N+](=O)[O-])n2)sc2c1CCCC2 [CBK269139] | 113% | – |
| CC1Cc2cc(C(O)CN3CCC(O)(c4ccccc4F)CC3)ccc2N1S(C)(=O)=O (stereo not shown) [CBK283091] | 87.5% | – |
| COc1cc(C(=O)NC/C=N/O)cc(OC)c1OC [CBK015662] | 90% | – |
| COc1ccc(NC(=O)C(=O)N/N=C/c2ccc(C(=O)O)cc2)cc1 [CBK262255] | 95.5% | – |

| Structure (SMILES) | viability at 28.5 h, 10 µM | viability at 28.5 h, 10 µM (bulk resorufin, single well) |
| --- | --- | --- |
| CCn1c(CN2CCCC2c2nc(N(C)C)ncc2-c2ccc(F)cc2)nc2ccccc21 (stereo not shown) [CBK285974] | 94.9% | – |
| COc1ccc([C@@]23CC[C@@H](NC(=O)Nc4ccc(Cl)cc4Cl)C[C@@H]2CN(C)C3)cc1OC [CBK085798T] | 88.5% | – |
| Fc1ccccc1CCOc1cncc(Cl)n1 [CBK176038] | 86% | – |
| Cc1cc(C[C@@H]2CCC[C@H]2NCc2ccncc2)on1 [CBK284934] | 98.6% | – |
| CCc1ccc(NS(=O)(=O)c2cnn(CC)c2)cc1 [CBK270314] | 101% | – |
| CC(O)CNC(=O)c1cn2cc(-c3cccs3)n(CC3CC3)c(=O)c2n1 (stereo not shown) [CBK307117] | 81.3% | – |
| O=C(CN1CCN(Cc2ccccc2)CC1)Nc1cccc(Cl)c1 [CBK267850] | 113% | – |
| COc1nc2ccccc2nc1CCc1nc(-c2ccccc2)no1 [CBK269840] | 86% | – |
| O=CN1CCc2c([nH]c3ccccc23)C12CCN(CCCN1C(=O)C3CCCCC3C1=O)C2 (stereo not shown) [CBK039592] | 114% | – |
| CCc1cccc(-n2nc(C)c3c2NC(=O)CC3C(=O)c2ccc(CC)s2)c1 (stereo not shown) [CBK294435] | 113% | – |
| O=c1c2cccnc2nc(SCCO)n1CC1CCCO1 (stereo not shown) [CBK306113] | 80.3% | – |
| O=C(COc1ccc2c(c1)OCO2)Nc1ccccn1 [CBK288148] | 86.6% | – |
| CC(Oc1cccc(Cl)c1)C(=O)NCc1ccc(S(N)(=O)=O)cc1 (stereo not shown) [CBK265477] | 97% | – |
| COC1C(O)C(CO)OC1n1cc(F)c(SC)nc1=O (stereo not shown) [CBK201267] | 106% | – |
| OC(Cn1nnc2ccccc21)Cn1c(-c2ccccc2)c(-c2ccccc2)c2ccc3ccccc3c21 (stereo not shown) [CBK264054G] | 92.9% | – |
| O=C(NCCCN1CCOCC1)c1cc2cc([N+](=O)[O-])ccc2oc1=O [CBK263441] | 90.9% | – |
| O=C(O)CC1C(=O)NCCN1Cc1ccccc1Cl (stereo not shown) [CBK270114] | 93% | – |
| CC(Nc1cc(N2CCN(S(=O)(=O)N(C)C)CC2)ccc1[N+](=O)[O-])C12CC3CC(CC(C3)C1)C2 (stereo not shown) [CBK265479] | 115% | – |
| O=C(c1ccco1)N1CCN(c2ccc(/C=C/c3ccccc3)cn2)CC1 [CBK037701] | 98.7% | – |
| CC(C)(C)c1cc(CN2CCN(CCO)CC2)cc(C(C)(C)C)c1O [CBK261753] | 95.4% | – |
| CCOC(=O)N1CCN(c2cccc3[nH]c(C(=O)O)cc23)CC1 [CBK083477] | 93.9% | – |
| CN(c1ncc(-c2ccccc2)cc1C(=O)NCc1cccnc1)S(C)(=O)=O [CBK076507] | 98.9% | – |

From paper PMC12040169 (PLOS Biology, 2025)
